“Also recorded” adds a separate entry of the source. Marks after values point to notes of the source that are not given here.
Experiments:
MMTV-PyMT breast tumors = assay: In vivo phage homing to MMTV-PyMT breast tumors; parameters: species or system mouse; details: for phage homing to MMTV-PyMT breast tumors (in words): i.v. injected phage; for Fold over control phage / Specific Homing: phage homing in vivo, MMTV-PyMT breast tumors
Method: (§1) The following cell lines were maintained in DMEM supplemented with 10% FCS: C8161 human melanoma, MDA-MB-435 human breast cancer, KRIB human osteosarcoma, and human prostate cancer cells PPC1, DU145. LNCaP human prostate cancer cell line was grown in RPMI 1640 medium with 10 mM HEPES, 1 mM sodium pyruvate and 1.5 g/L sodium bicarbonate supplemented with 10% FCS. M12 human prostate cancer cell line was cultured in RPMI 1640 with 5 μg/ml insulin-transferrin-sodium selenite (ITS), 2.5 μg/ml fungizone, 50 μg/ml gentamycin, 0.2 μM dexamethasone, 10 ng/ml epidermal growth factor (EGF), and 5% FCS (Bae et al., 1998). To produce tumors, nude BALB/c and C56BL/6 mice were subcutaneously (C8161, KRIB, and PPC1) or orthotopically ([…], PPC1, DU145, M12, and LNCaP) injected with 1×10^6 tumor cells. Transgenic mouse tumor models included TRAMP prostate cancer, MMTV-PyMT breast cancer, and K14-HPV16 cervical cancer. To initiate cervical carcinogenesis, female K14-HPV16 mice (Arbeit et al., 1994) were treated with 17β-estradiol (E2; (Arbeit et al., 1996; Giraudo et al., 2004). Briefly, one-month-old virgin female transgenic (heterozygous K14-HPV16, 1203#1) and nontransgenic (FVB/n) mice were anesthetized with isoflurane, and continuous release pellets that deliver E2 at doses of 0.05 mg over 60 days (Innovative Research of America, Sarasota, Fla., USA) were implanted subcutaneously in the dorsal back skin. Subsequent pellets were implanted at 3 and 5 months of age for a total of 6 months of hormone treatment. K14-HPV16 mice were maintained in the FVB/n background (FVB/n; The Jackson Laboratory). The mice were maintained in accordance with the University of California, San Francisco (UCSF) institutional guidelines governing the care of laboratory mice. The animal experimentation was approved by Animal Research Committees at UCSF or The Burnham Institute.
(§2) In vivo homing specificity of phage was tested as described (Hoffman, 2004). Briefly, mice bearing tumors were anesthetized and intravenously injected with 5×10^9 pfu of phage. After 7 min, the mice were perfused through the heart with PBS containing 0.5% BSA. The tumor and control organs were dissected from each mouse and the phage were rescued and tittered. For histology analysis, the mice were perfused with 4% PFA 30 min after the injection of phage. Tissues were embedded in Tissue-Tek O.C.T. and 5 μm sections were prepared for phage immunostaining.

[1] = system: human prostate tumor sections; assay: Phage overlay of tissue sections from human prostate cancer; details: two primary human prostate cancers
Method: The frozen sections of human prostate tumor specimens were obtained from Dr. Daniel Mercola (Sidney Kimmel Cancer Center, La Jolla, Calif.). The sections (5 μm) were preincubated with blocking buffer (5% normal goat serum and 0.5% BSA in 1×PBS) for 1 hr at room temperature, washed three times with diluted blocking buffer (1:10), and phage (3×10^9 pfu) were incubated on the section for 4 hrs. After 3 washes, rabbit anti-phage antibody (10 μg/ml) was added and the phage incubated for 2 hrs. The slides were washed and incubated with AlexaFluor-488 goat anti-rabbit IgG for 1 hr. After further washes, the slides were mounted with Vectashield (VECTOR, Burlingame, Calif.).

[2] = system: K14-HPV16/E2 cervical tumors; assay: In vivo phage homing to K14-HPV16/E2 cervical tumors; parameters: species or system mouse; details: for phage homing to K14-HPV16/E2 cervical tumors (in words): i.v. injected phage; for Fold over control phage / Specific Homing: phage homing in vivo, K14-HPV16/E2 cervical cancer / cervical tumors
Method: as §1, §2

TRAMP PIN lesions = assay: In vivo phage homing to TRAMP pre-malignant (PIN) lesions; parameters: species or system mouse; details: for phage homing to TRAMP pre-malignant lesions (in words): i.v. injected phage
Method: as §1, §2

normal tissues = assay: In vivo phage homing to normal and control tissues; parameters: species or system mouse; details: for phage in other tissues versus nonrecombinant control phage: lymph nodes, kidneys, lungs, skin, gut
Method: as §2

TRAMP prostate tumors [3] = assay: In vivo phage homing to TRAMP prostate tumors; parameters: species or system mouse; details: for Fold over control phage / Specific Homing: phage homing in vivo, TRAMP prostate tumors; for phage homing to TRAMP prostate tumors (in words): i.v. injected phage
Method: as §1, §2

[4] = system: pre-malignant TRAMP lesions
Method: (§3) Custom immunization to produce a rabbit antiserum against mouse Prox-1 was performed by Proteintech Inc. New Zealand White rabbits were immunized with a fusion protein of GST-C-terminal fragment of Prox-1 protein. The antibody was affinity purified on the fusion protein and absorbed with GST. […] Antibodies against the lymphatic markers anti-LYVE-1 (Laakkonen et al., 2002) and anti-podoplanin (kindly provided by T. Petrova and K. Alitalo), rat monoclonal anti-mouse CD31 (BD Pharmingen), rat anti-mouse MECA-32 (Pharmingen), rabbit polyclonal anti-T7 phage, and rat anti-mouse VEGFR3 were used for immunohistochemical staining of frozen tissue sections as described (Joyce et al., 2003; Laakkonen et al., 2002). The corresponding secondary antibodies were added and incubated for 1 hr at room temperature: AlexaFluor-488 goat anti-rat or rabbit IgG (1:1000; Molecular Probes, Eugene, Oreg.), AlexaFluor-594 goat anti-rat or rabbit IgG (1:1000, Molecular Probes), AlexaFluor-594 donkey anti-mouse or goat IgG (1:1000, Molecular Probes), and AlexaFluor-488 donkey anti-mouse or goat IgG (1:1000; Molecular Probes), respectively. The slides were washed three times with PBS and mounted in Vectashield Mounting Medium with DAPI (Vector Laboratories, Burlingame, Calif.). Blood vessels were also visualized by intravenously injecting Lycopersicon esculentum (tomato) lectin conjugated to fluorescein (100 μg of lectin in 200 μl of PBS; Vector Laboratories). […] The injected peptides were allowed to circulate 30 min to 2 hrs, and the mice were perfused with 4% paraformaldehyde through the left ventricle of heart. Tissues were dissected and frozen in OCT embedding medium (Tissue-Tek, Elkhart, Ind.). The frozen sections were prepared for immunohistological analysis.

TRAMP prostate tumors [5] = details: for fluorescent peptide in TRAMP prostate tumors (in words): fluorescein-conjugated peptide i.v.
Method: as §3

[6] = system: PPC1 tumor-derived cell suspensions; assay: REA phage binding to PPC1 tumor-derived cell suspensions; type: cell-based; details: listed as REA-phage
[7] = system: DU145 orthotopic xenografts; assay: In vivo phage homing to DU145 orthotopic xenografts; parameters: species or system mouse; details: for phage homing to DU145 xenografts (in words): i.v. injected phage
Method: as §1, §2

cultured PPC1 cells = assay: REA phage binding to cultured PPC1 cells; type: cell-based, human; details: listed as REA-phage
[8] = phage homing in vivo, TRAMP PIN lesions
[9] = phage and fluorescein-labeled peptide, TRAMP pre-malignant lesions
[10] = phage homing in vivo, DU145 orthotopic xenografts
[11] = phage and fluorescein-labeled peptide, TRAMP tumors

Sequence	phage homing to MMTV-PyMT breast tumors (in words) (MMTV-PyMT breast tumors)	Fold over control phage (MMTV-PyMT breast tumors)	Specific Homing (MMTV-PyMT breast tumors)	phage binding to human prostate tumor sections (in words) [1]	phage homing to K14-HPV16/E2 cervical tumors (in words) [2]	Fold over control phage [2]	Specific Homing [2]	phage in other tissues versus nonrecombinant control phage (normal tissues)	Fold over control phage (TRAMP prostate tumors [3])	Specific Homing (TRAMP prostate tumors [3])	fluorescent peptide in TRAMP prostate tumors (in words) (TRAMP prostate tumors [5])	also measured
CAGRRSAYC	little homing of the phage	4 fold	No	did not bind	little homing of the phage	4 fold	No	Neither phage was found in other tissues	4 fold	No	little or no peptide was seen	phage homing to TRAMP pre-malignant lesions (in words) (TRAMP PIN lesions; listed as AGR phage): selectively home to pre-malignant lesions; also recorded: homed significantly more; also recorded: homes only to pre-malignant lesions; also recorded: marked preference; enrichment to pre-malignant TRAMP lesions relative to nonrecombinant phage (TRAMP PIN lesions; phage clones tested in vivo individually): 24 fold; Fold over control phage (TRAMP PIN lesions; [8]): 18 fold; Specific Homing (TRAMP PIN lesions; [8]): Yes; co-localization with lymphatic markers podoplanin, VEGFR3, LYVE-1, Prox-1 [4, 9]: substantial co-localization; localization versus blood vessel markers CD31 and MECA-32 [4, 9]: entirely distinct
CREAGRKAC	negative for REA binding	8^‡ fold	Yes	recognizes the lymphatics of human prostate tumors	slightly positive	7^‡ fold	Yes	Neither phage was found in other tissues	46 fold	Yes	accumulated in prostate tumors	phage binding to PPC1 tumor-derived cell suspensions (in words) [6]: binds to cell suspensions derived from PPC1 tumors; also recorded: strongly bound; phage homing to DU145 xenografts (in words) ([7]; listed as REA phage): homed; phage homing to DU145 xenografts (in words) ([7]; listed as REA-phage): Significant phage homing; Fold over control phage [7, 10]: 14 fold; Specific Homing [7, 10]: Yes; phage homing to TRAMP pre-malignant lesions (in words) (TRAMP PIN lesions): not to pre-malignant lesions or normal prostate; phage binding to cultured PPC1 cells (in words) (cultured PPC1 cells): not to cultured PPC1 cells; also recorded: did not bind; phage homing to normal prostate (normal tissues; tumor-free littermates of TRAMP mice): not to pre-malignant lesions or normal prostate; enrichment in TRAMP tumors relative to nonrecombinant phage (TRAMP prostate tumors [3]; i.v. injected phage clone): 50 fold; phage homing to TRAMP prostate tumors (in words) (TRAMP prostate tumors [3]; listed as REA phage): homes to tumors; phage homing to TRAMP prostate tumors (in words) (TRAMP prostate tumors [3]; listed as REA-phage): accumulate in TRAMP tumors; also recorded: Significant phage homing; fluorescent peptide in TRAMP pre-malignant lesions (in words) ([4]; fluorescein-conjugated peptide i.v.): negative; overlap with podoplanin-positive lymphatic vessels (TRAMP prostate tumors [5]; fluorescein-conjugated peptide, prostate tumors): 90%; co-localization with lymphatic markers podoplanin, VEGFR3, LYVE-1, Prox-1 (TRAMP prostate tumors [5]; [11]): substantial co-localization; localization versus blood vessel markers CD31 and MECA-32 (TRAMP prostate tumors [5]; [11]): entirely distinct

From US8536132B2, “Lymphatic zip codes in tumors and pre-malignant lesions” (Sanford-Burnham Medical Research Institute, priority 2006, dated 2013)
